Experimental data published in patent US5527703A (Merck & Co., Inc., priority 1994, dated 1996).
“Also recorded” adds a separate entry of the source. Values belong to the compound of their own block, whether it stands above or below them.

Legend:
GluClα [1] = target: T1, GluClα (Caenorhabditis elegans, UniProt G5EBR3); experiment: 3H-glutamate equilibrium binding to GluClα injected oocyte membranes; design: the full-length open reading frame of the GluCl cDNA encoding the GluClα (52,550 kDa) and GluClβ (49,900kDa) subunits; expressed in transfected cells; host or cells: Xenopus laevis oocytes injected with in vitro RNA; species or system C. elegans; details: membrane preparations from GluClα-injected oocytes
T1 sequence (G5EBR3 21-461): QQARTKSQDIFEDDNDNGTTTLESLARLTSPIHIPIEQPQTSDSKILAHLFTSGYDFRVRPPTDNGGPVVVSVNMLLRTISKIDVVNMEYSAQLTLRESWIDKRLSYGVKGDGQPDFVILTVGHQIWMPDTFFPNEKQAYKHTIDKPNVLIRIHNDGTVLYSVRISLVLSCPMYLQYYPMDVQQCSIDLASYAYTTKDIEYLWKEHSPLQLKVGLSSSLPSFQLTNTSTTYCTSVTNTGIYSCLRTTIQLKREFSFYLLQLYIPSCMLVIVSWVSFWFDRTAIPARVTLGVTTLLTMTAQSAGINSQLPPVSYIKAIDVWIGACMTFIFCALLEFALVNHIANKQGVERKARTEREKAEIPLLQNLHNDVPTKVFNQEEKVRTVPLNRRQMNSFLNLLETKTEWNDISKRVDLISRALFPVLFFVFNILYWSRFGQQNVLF
Procedure: (§1) Oocytes injected with GluClα and GluClβ in vitro RNA were used in ^3 H-ivermectin and ^3 H-glutamate binding assays. GluClα (1 ng) or GluClβ RNA (1 ng) were injected into oocytes individually, or coinjected (0.5 ng each) and 2 days later the oocytes were disrupted with a dounce homogenizer and yolk proteins removed using standard methods known in the art. Equilibrium ligand binding assays were performed using conventional procedures. […] Oocytes expressing GluCl α&β are used to measure the affinity of binding of othere compounds and their ability to displace ^3 H-ivermectin and ^3 H-glutamate binding.

GluCl α&β [2] = target: T2, GluCl α&β (Caenorhabditis elegans, UniProt G5EBR3+Q17328); experiment: Antagonist block of ligand-activated current in oocytes injected with GluClα and GluClβ RNA; type: cell-based, C. elegans; details: for % Block: blocker 100 μM; for inhibition at 100 µM: read-out: % Block
T2 construct: the full-length open reading frame of the GluCl cDNA encoding the GluClα (52,550 kDa) and GluClβ (49,900kDa) subunits; expressed in transfected cells; host or cells: Xenopus laevis oocytes injected with in vitro RNA
T2 sequence (G5EBR3 21-461): T1 sequence (G5EBR3 21-461)
T2 sequence (Q17328 23-434): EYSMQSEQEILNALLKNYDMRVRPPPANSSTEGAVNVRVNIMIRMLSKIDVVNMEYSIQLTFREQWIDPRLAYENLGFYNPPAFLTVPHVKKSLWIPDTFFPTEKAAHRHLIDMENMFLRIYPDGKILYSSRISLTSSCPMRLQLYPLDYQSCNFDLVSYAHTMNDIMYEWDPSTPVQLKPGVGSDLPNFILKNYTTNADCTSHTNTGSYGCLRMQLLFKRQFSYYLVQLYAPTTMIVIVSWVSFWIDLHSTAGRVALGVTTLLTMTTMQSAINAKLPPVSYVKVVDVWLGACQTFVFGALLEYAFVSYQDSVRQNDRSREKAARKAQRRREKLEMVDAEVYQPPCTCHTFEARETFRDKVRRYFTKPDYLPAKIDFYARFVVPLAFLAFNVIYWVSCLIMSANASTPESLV
Procedure: (§2) Xenopus laevis oocytes were prepared and injected using standard methods previously described and known in the art [Arena, J. P., Liu. K. K., Paress, P. S. & Cully. D. F. Mol. Pharmacol. 40, 368-374 (1991 ); Arena, J. P., Liu, K. K., Paress, P. S., Schaeffer, J. M. & Cully, D. F. Mol. Brain Res. 15, 339-348 (1992)]. Adult female Xenopus laevis were anesthetized with 0.17% tricaine methanesulfonate and the ovaries were surgically removed and placed in a dish consisting of (mM): NaCl 1 82.5, KCl 2. MgCl2 1, CaCl2 1.8, HEPES 5 adjusted to pH 7.5 with NaOH (OR-2). Ovarian lobes were broken open, rinsed several times, and gently shaken in OR-2 containing 0.2% collagenase (Sigma, Type 1A) for 2-5 hours. When approximately 50% of the follicular layers were removed, Stage V and VI oocytes were selected and placed in media consisting of (mM): NaCl 86, KCl 2, MgCl2 1, CaCl2 1.8, HEPES 5, Na pyruvate 2.5, theophylline 0.5, gentamicin 0.1 adjusted to pH 7.5 with NaOH (ND-96) for 24-48 hours before injection. Oocytes were injected with 50-70 nl of poly(A^+) RNA (1 mg/ml) or 50 nl of GluClα (0.1-100 ng) and/or GluClβ (0.1-100 ng). Control oocytes were injected with 50 nl of water. Oocytes were incubated for 2-10 days in ND-96 before recording. Incubations and collagenase digestion were carried out at 18° C.
(§3) Recordings were made at room temperature 2-10 days after injection. Unless otherwise indicated recordings were made in standard frog saline consisting of (mM): NaCl 115, KCl 2, MgCl2 1, CaCl2 1.8, HEPES 10 adjusted to pH 7.5 with NaOH. Oocytes were voltage-clamped using a standard two microelectrode amplifier (Dagan 8500 or TEV-200, Minneapolis,Minn.). Pipettes were filled with 3M KCl and had resistances between 0.5-3.0 M.OMEGA.. A plexiglass recording chamber (volume 200 μl) was constantly perfused at a rate of 10 ml/min. The recording chamber was connected to ground with a Ag/AgCl electrode directly, or through a 3M KCl agar bridge when extracellular chloride was varied. For low chloride solutions NaCl was replaced with equimolar concentrations of sodium isethionic acid. For low sodium solutions NaCl was replaced with equimolar KCl or choline Cl. Data were acquired and analyzed using PCLAMP with a TL-1 interface (Axon Instruments, Foster City, Calif.). Membrane current at a holding potential of -80 mV was recorded. The amplitude of drug-sensitive current was determined by subtracting the holding current at -80 mV from the peak current obtained in the presence of drug. Data were filtered at 30 Hz and sampled at 16.6 Hz. Current/voltage relationships (I/V) and reversal potentials (Erev) were determined using a 1-3 sec voltage ramp over the voltage range of -110 to +80 mV. For the ramps, data were filtered at 0.3-3 kHz and sampled at 160 Hz. Current in drug free solution was subtracted from current in the presence of drug to obtain drug-sensitive current/voltage relationships.
Oocytes were injected simultaneously with GluClα and GluClβ RNA
(25 pg each). n=at least four for each group. a- Data are expressed as %
acid. e- Block was considered zero if response in the presence of blocker
was ± 3% of control. f- (-)-Bicuculline methochloride g.

[3] = tested on: glutamate- and avermectin-sensitive chloride channel (C. elegans poly(A)+ RNA); details: cited from earlier work
arthropod H-receptors = details: cited from earlier work
GluClα [4] = target: T1, GluClα; experiment: Permeability (reversal potential) of GluClα channels in oocytes; type: cell-based, C. elegans; design: homomeric channel; voltage clamp reversal potentials; details: Erev in Na isothionate
Procedure: Xenopus laevis oocytes were prepared and injected using standard methods previously described and known in the art [Arena, J. P., Liu. K. K., Paress, P. S. & Cully. D. F. Mol. Pharmacol. 40, 368-374 (1991 ); Arena, J. P., Liu, K. K., Paress, P. S., Schaeffer, J. M. & Cully, D. F. Mol. Brain Res. 15, 339-348 (1992)]. Adult female Xenopus laevis were anesthetized with 0.17% tricaine methanesulfonate and the ovaries were surgically removed and placed in a dish consisting of (mM): NaCl 1 82.5, KCl 2. MgCl2 1, CaCl2 1.8, HEPES 5 adjusted to pH 7.5 with NaOH (OR-2). Ovarian lobes were broken open, rinsed several times, and gently shaken in OR-2 containing 0.2% collagenase (Sigma, Type 1A) for 2-5 hours. […]
Recordings were made at room temperature 2-10 days after injection. […] Data were acquired and analyzed using PCLAMP with a TL-1 interface (Axon Instruments, Foster City, Calif.). Membrane current at a holding potential of -80 mV was recorded. The amplitude of drug-sensitive current was determined by subtracting the holding current at -80 mV from the peak current obtained in the presence of drug. […] Current/voltage relationships (I/V) and reversal potentials (Erev) were determined using a 1-3 sec voltage ramp over the voltage range of -110 to +80 mV. […]

GluCl α&β [5] = target: T2, GluCl α&β; experiment: Agonist activation of current in Xenopus oocytes injected with GluClα and GluClβ RNA (two-microelectrode voltage clamp); type: cell-based, C. elegans
Procedure: as §2, §3
(§4) Electrophysiological properties were examined in oocytes injected with in vitro RNA from pGluClα and pGluClβ (FIG. 5).
Several ligand-gated ion channel agonists and antagonists were tested on oocytes injected with GluCl α&β (Table 1). […] 255, 449-464 (1976); Arena, J. P., Liu, K. K., Paress, P. S., Schaeffer, J. M. & Cully, D. F. Mol. Brain Res. 15, 339-348 (1992); Lea, T. J. & Usherwood, P. N. R. Comp. Gen. Pharmacol. 4, 351-363 (1973)].

GluClα [6] = target: T1, GluClα; experiment: Activation of current in Xenopus oocytes expressing homomeric GluClα (voltage clamp); type: cell-based, C. elegans; design: the full-length open reading frame of the GluCl cDNA encoding the GluClα (52,550 kDa) and GluClβ (49,900kDa) subunits; expressed in transfected cells; host or cells: Xenopus laevis oocytes injected with in vitro RNA
Procedure: as §2, §3, §4

GluClβ = target: T3, GluClβ (Caenorhabditis elegans, UniProt Q17328); experiment: Activation of current in Xenopus oocytes expressing homomeric GluClβ (voltage clamp); type: cell-based, C. elegans
T3 construct: the full-length open reading frame of the GluCl cDNA encoding the GluClα (52,550 kDa) and GluClβ (49,900kDa) subunits; expressed in transfected cells; host or cells: Xenopus laevis oocytes injected with in vitro RNA
T3 sequence (Q17328 23-434): T2 sequence (Q17328 23-434)
Procedure: as §2, §3, §4

GluCl α&β [7] = target: T2, GluCl α&β; experiment: 3H-ivermectin equilibrium binding to GluCl α&β RNA injected oocytes; design: species or system C. elegans; details: read-out: affinity of 3H-ivermectin binding; oocytes expressing GluCl α&β
Procedure: as §1

GluClα [8] = target: T1, GluClα; experiment: 3H-ivermectin equilibrium binding to GluClα RNA injected oocytes; design: the full-length open reading frame of the GluCl cDNA encoding the GluClα (52,550 kDa) and GluClβ (49,900kDa) subunits; expressed in transfected cells; host or cells: Xenopus laevis oocytes injected with in vitro RNA; species or system C. elegans; details: read-out: affinity of 3H-ivermectin binding; oocytes expressing GluClα
Procedure: as §1

Compound: ^3 H-glutamate
Specific 3H-glutamate binding (GluClα [1]): observed

inhibition at 200 µM (GluCl α&β [2]; blocker 200 μM, ligand IVMPO4 1 μM): 60 ± 4%
Compound: O=C(O)c1ccccc1Nc1cccc(C(F)(F)F)c1 [Flufenamic Acid]
block of glutamate- and IVMPO4-sensitive currents (GluCl α&β [2]): blocked; also recorded: low affinity block

inhibition at 10 µM (GluCl α&β [2]): 0%
Compound: N#Cc1cc2[nH]c(=O)c(=O)[nH]c2cc1[N+](=O)[O-] [CNQX, 6-cyano-7-nitroquino-xaline-2,3-dione]

Compound: Picrotoxin
effect on glutamate- and avermectin-sensitive current [3]: blocked with low affinity
block of glutamate- and IVMPO4-sensitive currents (GluCl α&β [2]): blocked; also recorded: low affinity block
% Block (GluCl α&β [2]; ligand IVMPO4 1 μM): 61 ± 2%
% Block (GluCl α&β [2]; ligand glutamate 1 mM, zero if within ± 3% of control): 68 ± 4%
effect on arthropod H-receptors (arthropod H-receptors): blocked with low affinity

permeability ratio to chloride (GluClα [4]): 0.2
Compound: O=S(=O)(O)CCO [isothionate]

Compound: NCC(=O)O [Glycine]
activation of current / sensitivity of coexpressed GluCl α&β (GluCl α&β [5]): insensitivity
sensitivity of GluClα homomeric channels (GluClα [6]): insensitive
sensitivity of GluClβ homomeric channels (GluClβ): insensitive

Compound: O=C1C[C@@H]2OCC=C3CN4CC[C@]56c7ccccc7N1[C@H]5[C@H]2[C@H]3C[C@H]46 [Strychnine]
inhibition at 100 µM (GluCl α&β [2]): 0%

Compound: CC[C@H](C)[C@H]1O[C@]2(CC[C@@H]1C)C[C@@H]1C[C@@H](C/C=C(\C)[C@@H](O[C@H]3C[C@H](OC)[C@@H](O[C@H]4C[C@H](OC)[C@@H](O)[C@H](C)O4)[C@H](C)O3)[C@@H](C)/C=C/C=C3\CO[C@@H]4[C@H](O)C(C)=C[C@@H](C(=O)O1)[C@]34O)O2 [^3 H-ivermectin, 22,23-dihydroavermectin B1a]
Kd (GluCl α&β [7]): ~0.2 nM
Kd (GluClα [8]): ~0.2 nM

Compound: NCCCC(=O)O [GABA]
activation of current / sensitivity of coexpressed GluCl α&β (GluCl α&β [5]): insensitivity
sensitivity of GluClα homomeric channels (GluClα [6]): insensitive
effect on arthropod H-receptors (arthropod H-receptors): not activated
sensitivity of GluClβ homomeric channels (GluClβ): insensitive

Compound: NC(C(=O)O)c1cc(=O)[nH]o1 (stereo not shown) [Ibotenate]
effect on glutamate- and avermectin-sensitive current [3]: activated
activation of current / sensitivity of coexpressed GluCl α&β (GluCl α&β [5]): direct activation of current
Emax at 500 µM (GluCl α&β [5]; read-out: % of Glutamate 10 mM): 18 ± 2%
effect on arthropod H-receptors (arthropod H-receptors): activated

Compound: C[N+]1(C)CCc2cc3c(cc2C1C1OC(=O)c2c1ccc1c2OCO1)OCO3 (single isomer, unassigned; (-)) [Bicuculline, (-)-Bicuculline methochloride]
inhibition at 100 µM (GluCl α&β [2]): 0%
